The values that follow come from US11207299B2, “Biphenyl sulfonamide compounds for the treatment of type IV collagen diseases” (Travere Therapeutics, Inc., priority 2018, dated 2021).

“And” between values parts separate entries of the source, which are not always exact repeats. Identical values can stand only once. “Also recorded” adds a separate entry of the source.

For assay [1], the system named is autosomal Alport mice (COL4A3^−/−). The assay is described as follows: Early intervention study in Alport mice (treated from 3-7 weeks of age). Format: in vivo, mouse. An excerpt:
(§1) Vehicle or sparsentan was given daily by oral gavage to autosomal Alport mice (COL4A3^−/−) on the 129/Sv background (male and female) in five separate studies: a pilot study, an early intervention study (treated from 3-7 weeks of age), a late intervention study (treated from 5-7 weeks of age after the onset of glomerular (GM) changes), a lifespan study, and a hearing study (FIG. 1). The early intervention, late intervention, lifespan, and hearing studies also included mice treated with a comparator, losartan, which was given orally at 3-4 weeks of age in the early intervention study, in drinking water at 4-7 weeks of age in the early intervention study, and in drinking water at 5-7 weeks in the late intervention study.
(§2) Efficacy renal endpoints included blood urea nitrogen (BUN), proteinuria (urine protein to creatinine ratio, or UP/C), glomerulosclerosis, tubulointerstitial fibrosis, leucocyte infiltration, and glomerular basement morphology (GBM) using transmission electron microscopy (TEM). Endpoints in the inner ear included auditory brain stem response (ABR) threshold as a measure of noise-induced hearing loss, strial capillary basement membrane thickness, and inner ear pathology by TEM.
In the early intervention study, wild-type and Alport mice were dosed daily by oral gavage with vehicle or sparsentan at 120 mg/kg from 3 to 7 weeks of age (7-8 mice per group), or with losartan at 20 mg/kg by oral gavage from 3-4 weeks of age (during weaning) and 10 mg/kg in drinking water from 4-7 weeks of age.
For the pilot, early intervention, late intervention, and lifespan studies, spot urine was sampled pre-study and weekly during treatment and analyzed for protein (UP) and creatinine (C) to determine proteinuria (UP/C). At the end of each study the animals were euthanized, blood samples were taken, BUN was measured from serum, and kidneys were harvested for structural and immuno-fluorescent measurements. Glomerulosclerosis was assessed by immunofluorescence (IF) using an antibody to fibronectin (FN). Visual counting of the number of sclerotic glomeruli as a proportion of the total number of glomeruli per slide was used to calculate the percentage of sclerotic glomeruli. Sections were co-stained with an anti-CD45 antibody to indicate leucocyte infiltration. Tubulointerstitial fibrosis was determined by IF of kidney sections using an antibody to collagen 1 (COL1). Tubulointerstitial fibrosis (TIF) scoring was conducted by visual assessment of the COL1 positive area as a percentage of the total cortical area and was performed blinded. The fibrosis scoring (“Fibrosis Score”) was categorized according to visual judgment of percentage of total cortical area, as: 0=<5%, 1=5-10%, 2=10-25%, 3=25-50%, 4=50-75%, or 5=75-100%. Ultrastructural changes in GBM and podocyte morphology were observed using transmission electron microscopy (TEM).

For assay [2] the test system is unchanged. The assay is described as follows: Hearing study in Alport mice (ABR, noise exposure, strial capillary basement membrane TEM). In kind it is in vivo, mouse.
Source text: as §1, §2
For the hearing study, wild-type or Alport mice were treated according to daily from 3-8.5 weeks of age by oral gavage with vehicle (0.5% methylcellulose 4000 cps/0.25% Tween® 80 in distilled water) or 120 mg/kg sparsentan or losartan at 20 mg/kg by oral gavage from 3-4 weeks of age (during weaning) and 10 mg/kg in drinking water from 4-7 weeks of age (n=5). The progression of Alport disease was assessed at 7 weeks of age by the amount of proteinuria (via urinalysis reagent strips—data not shown). Strial capillary basement membrane (SCBM) width was analyzed by transmission electron microscopy (TEM), and accumulation of extracellular matrix (ECM) in SCBM was determined by immunofluorescence (IF) microscopy using an antibody to laminin α2. Hearing ability and sensitivity to noise were assessed between 7 and 8 weeks of age by Auditory Brainstem Response (ABR), pre-noise exposure. A subset of each treatment group was then exposed to a metabolic noise stress for 10 hours. Mice receiving the noise treatment were randomly selected for overstimulation with a 106 dB sound pressure level (SPL), narrow band noise (8-16 kHz) for 10 hours, usually 10 PM to 8 AM. The noise exposure was conducted in a sound-isolation booth. A speaker was suspended from the ceiling. Wire cages with individual compartments were located midway between the floor and speaker. Mice were hydrated prior to placement in the cage and were provided free access to food. The noise exposure occurred at 8 weeks of age. The amount of hearing loss caused by the metabolic noise exposure was determined 5 days post-exposure.

Setting [3] is: Alport mice, sparsentan 120 mg/kg, at 7 wk of age, mean ± SD.

Take `CCCCC1=NC2(CCCC2)C(=O)N1Cc1ccc(-c2ccccc2S(=O)(=O)Nc2noc(C)c2C)c(COCC)c1` [sparsentan]: the “GBM damage and podocyte effacement (TEM)” value in assay [1] (Alport mice, sparsentan 120 mg/kg, early intervention) is “prevented changes in GBM ultrastructural morphology; also recorded: amelioration”. The UP/C in assay [1] (Alport mice, sparsentan 120 mg/kg oral daily from 3 wk, at 4 wk of age, mean ± SD, n = 8) worked out at 3.8 ± 1.3 mg/mg; in assay [1] (Alport mice, sparsentan 120 mg/kg, at 5 wk of age, mean ± SD), 10.4 ± 2.8 mg/mg; in assay [1] (Alport mice, sparsentan 120 mg/kg, at 6 wk of age, mean ± SD), 13.6 ± 3.7 mg/mg; in assay [1] (setting [3]), 14.0 ± 3.3 mg/mg. In addition, the BUN in assay [1] (setting [3]) was found to be 17.5 ± 3.3 mg/dL. Moreover, the “Sclerotic Glomeruli (%)” value in assay [1] (setting [3]) came to 0.8 ± 1.7 %. Besides, in assay [1] (Alport mice, sparsentan 120 mg/kg, at 7 wk, score 0=<5% to 5=75-100% COL1 area, mean ± SD), the “Fibrosis Score” value was found to be 0.0 ± 0.0. For the same compound, the “Development of nephropathy in Alport mice” value in assay [1] (sparsentan 120 mg/kg 28 days or losartan 20 mg/kg 7 days then 10 mg/kg 21 days, from 3 weeks of age) was “prevented”. Also, the “UP/C, BUN, glomerulosclerosis, and fibrosis vs. vehicle-treated Alport mice” value in assay [1] (sparsentan 120 mg/kg or losartan 20/10 mg/kg from 3 weeks of age, P<0.05) is listed as “significant attenuation”. For the same compound, the TIF or glomerulosclerosis entry in assay [1] (sparsentan- or losartan-treated Alport mice, early intervention) is on record as “little to no”. Moreover, the “Hearing ability before noise exposure (ABR)” value in assay [2] (7-8-week-old mice, sparsentan 120 mg/kg or losartan 20/10 mg/kg) was “did not differ significantly”. In assay [2] (16 kHz, 5 days after 10 h noise, sparsentan 120 mg/kg, P<0.05), the “Post-noise hearing loss (ABR threshold post-noise minus pre-noise) vs vehicle-treated Alport mice” value is on record as “prevented; also recorded: significantly reduced”. Besides, the “Increase in strial capillary basement membrane width observed in vehicle-treated Alport mice” value in assay [2] (Alport mice treated 3-8.5 weeks of age with sparsentan or losartan) is “prevented”. Also, the “mean SCBM width±SD” value in assay [2] (Alport mice, sparsentan 120 mg/kg from 3-8.5 weeks of age, TEM, n=5) turned out to be 54.7±2.4 nm. Moreover, the “Strial capillary basement membrane thickness, single measurements (FIG. 16)” value in assay [2] (capillary from a stria of a sparsentan-treated Alport mouse, TEM) is 52.45 nm and 58.09 nm and 80.38 nm. In addition, the “Stria vascularis pathology by TEM” value in assay [2] (treated Alport mice, FIGS. 14-23) was “substantially fewer extra- and intra-cytosolic vacuoles”.
